Source: patent US7632861B2, “Substituted heterocyclic ethers and their use in CNS disorders” (Bristol-Myers Squibb Company, priority 2007, dated 2009)

Legend:
hSERT = target: T1, hSERT (Homo sapiens, UniProt P31645); experiment: SERT radioligand binding assay ([125I]RTI-55, HEK-hSERT membranes); details: [125I]RTI-55, 1 hour at room temperature
T1 construct: expressed in transfected cells; host or cells: HEK-293 cells (crude membranes)
Procedure: (§1) NK-1 Binding assay. Crude membrane suspensions were prepared for the NK1 and SERT radioligand binding assays from U373 cells or recombinant HEK-293 cells expressing hSERT, respectively. Cells were harvested from T-175 flasks as follows. The medium is removed from the flasks and the cells rinsed with HBSS without Ca and without Mg. The cells are then incubated for 5-10 minutes in 10 mM Tris-Cl, pH 7.5, 5 mM EDTA before the cells are lifted with a combination of pipetting and scraping, as needed. To prepare membranes, the cell suspension is collected into centrifuge bottles and homogenized for 30 seconds with a Polytron homogenizer. The suspension is centrifuged for 30 min @ 32,000×g, 4° C., then the supernatant is decanted and the pellet resuspended and homogenized in 50 mM Tris-Cl, pH 7.5, 1 mM EDTA for 10 seconds. The suspension is then centrifuged again for 30 min @ 32,000×g, 4° C. The supernatant is decanted and the pellet resuspended in 50 mM Tris-Cl, pH 7.5, 1 mM EDTA and briefly homogenized. A Bradford assay (Bio-rad) is performed and the membrane preparation diluted to 2 mg/ml with 50 mM Tris-Cl, pH 7.5, 1 mM EDTA. Aliquots are prepared, and then frozen and stored at −80° C.
SERT radioligand binding assay. Compounds are dissolved in 100% DMSO at a concentration 100× the desired highest assay concentration, serially diluted 1:3 in 100% DMSO, and 0.4 ul/well of each solution is dispensed to a Nunc polypropylene, round bottom, 384 well plate. 100% inhibition is defined with 0.4 ul/well of 1 mM fluoxetine (Sigma F-132) dissolved in DMSO. 20 ul/well of a 2×HEK-hSERT membrane preparation (15 ug/ml in 50 mM Tris-Cl, pH 7.5, 120 mM NaCl, 5 mM KCl) and 20 ul/well of a 2×radioligand solution (520 pM [^125I]RTI-55 (Perkin-Elmer NEX-272) in 50 mM Tris-Cl, pH 7.5, 120 mM NaCl, 5 mM KCl) are added to each well and the reaction incubated for 1 hour at room temperature. The contents of the assay plate are then transferred to a Millipore MultiscreenHTS GF/B filter plate which has been pretreated with 0.5% PEI for at least one hour. The plate is vacuum filtered and washed with 7 washes of 100 ul/well of 50 mM Tris-Cl, pH 7.5, 120 mM NaCl, 5 mM KCl chilled to 4° C. The filtration and washing is completed in less than 90 s. The plates are air-dried overnight, 12 ul/well of MicroScint scintillation fluid added, and the plates counted in a Trilux.
(§2) Data analysis. The raw data are normalized to percent inhibition using control wells defining 0% (DMSO only) and 100% (selective inhibitor) inhibition which are run on each plate. Each plate is run in triplicate, and the concentration response curve thus generated is fit using the four-parameter dose response equation, Y=Bottom+(Top-Bottom)/(1+10^((LogIC50-X)*HillSlope)) in order to determine the IC50 value for each compound. The radioligand concentration chosen for each assay corresponds to the Kd concentration determined through saturation binding analysis for each assay.

NK-1 = target: T2, NK-1 (Homo sapiens, UniProt P25103); experiment: NK1 radioligand binding assay ([125I]Substance P, U373 cell membranes); details: 1 hour at room temperature
T2 construct: endogenous in cells; host or cells: U373 cells (crude membranes)
Procedure: as §1
NK1 radioligand binding assay. Compounds are dissolved in 100% DMSO at a concentration 100× the desired highest assay concentration, serially diluted 1:3 in 100% DMSO, and 0.6 ul/well of each solution is dispensed to a Nunc polypropylene, round bottom, 384 well plate. 100% inhibition is defined with 0.6 ul/well of 1 mM L-733,060 (Sigma L-137) dissolved in DMSO. 30 ul/well of a 2×U373 membrane preparation (267 ug/ml in 100 mM Tris-Cl, pH 7.5, 6 mM MgCl2, 0.2% (v/v) Sigma mammalian protease inhibitor cocktail (Sigma P-8340), and 4 ug/ml chymostatin, Sigma C-7268) and 30 ul/well of a 2×radioligand solution (400 pM [^125I]Substance P (Perkin Elmer NEX-190) in 1% (w/v) BSA (Sigma A-2153), 0.1 mg/ml bacitracin, Sigma B-0125) are added to the well and the reaction incubated for 1 hour at room temperature. The contents of the assay plate are then transferred to a Millipore MultiscreenHTS GF/B filter plate which has been pretreated with 0.5% PEI for at least one hour. The plate is vacuum filtered and washed with 7 washes of 100 ul/well of 20 mM Tris-Cl, pH 7.5, 0.5% (w/v) BSA chilled to 4° C. The filtration and washing is completed in less than 90 s. The plates are air-dried overnight, 12 ul/well of MicroScint scintillation fluid added, and the plates counted in a Trilux.
as §2

T2 sequence (P25103 whole entry): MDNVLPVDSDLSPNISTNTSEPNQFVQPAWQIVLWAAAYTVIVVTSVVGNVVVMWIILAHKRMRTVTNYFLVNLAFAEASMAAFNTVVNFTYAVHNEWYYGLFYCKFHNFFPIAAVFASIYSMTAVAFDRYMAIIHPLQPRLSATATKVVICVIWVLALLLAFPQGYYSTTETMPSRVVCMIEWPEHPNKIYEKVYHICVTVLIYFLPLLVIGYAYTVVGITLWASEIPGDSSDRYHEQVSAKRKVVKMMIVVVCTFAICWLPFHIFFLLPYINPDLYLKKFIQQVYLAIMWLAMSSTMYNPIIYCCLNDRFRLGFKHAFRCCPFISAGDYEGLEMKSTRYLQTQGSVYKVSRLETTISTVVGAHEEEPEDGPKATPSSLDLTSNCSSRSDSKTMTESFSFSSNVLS
T1 sequence (P31645 whole entry): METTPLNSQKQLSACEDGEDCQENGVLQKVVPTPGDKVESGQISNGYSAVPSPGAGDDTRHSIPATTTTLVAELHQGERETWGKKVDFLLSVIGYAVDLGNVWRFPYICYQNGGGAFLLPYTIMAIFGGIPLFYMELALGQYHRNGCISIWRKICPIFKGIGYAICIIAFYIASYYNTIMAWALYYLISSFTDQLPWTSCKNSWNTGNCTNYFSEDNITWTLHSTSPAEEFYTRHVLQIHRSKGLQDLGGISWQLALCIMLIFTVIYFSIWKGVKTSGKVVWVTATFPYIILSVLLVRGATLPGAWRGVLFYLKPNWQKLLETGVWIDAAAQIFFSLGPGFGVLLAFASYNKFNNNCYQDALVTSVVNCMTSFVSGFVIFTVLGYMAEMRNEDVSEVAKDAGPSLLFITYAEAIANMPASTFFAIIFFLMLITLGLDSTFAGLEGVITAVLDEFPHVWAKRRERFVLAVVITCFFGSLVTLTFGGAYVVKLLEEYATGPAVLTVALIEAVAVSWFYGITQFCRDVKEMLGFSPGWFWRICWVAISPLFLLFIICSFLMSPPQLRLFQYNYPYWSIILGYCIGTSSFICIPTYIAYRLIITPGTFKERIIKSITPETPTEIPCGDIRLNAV

Row | SMILES | IC50 (hSERT) | IC50 (NK-1)
1 | NCCC1(COCc2cc(-c3ccccc3Cl)cc(C(F)(F)F)c2)OCc2ccccc21 (centres unmarked) [Example 14] | > 300 nM | 100 to 300 nM
2 | N#Cc1ccc(-c2cc(COCC3(CCN)OCc4ccccc43)cc(C(F)(F)F)c2)cc1 (centres unmarked) [Example 2, 3′-(((1-(2-aminoethyl)-1,3-dihydroisobenzofuran-1-yl)methoxy)methyl)-5′-(trifluoromethyl)biphenyl-4-carbonitrile] | 100 to 300 nM | 0.01 to 100 nM
3 | N#Cc1ccccc1-c1cc(COCC2(CCN)OCc3ccccc32)cc(C(F)(F)F)c1 (centres unmarked) [Example 6] | 100 to 300 nM | 100 to 300 nM
4 | NCCC1(COCc2cc(-c3ccc(Cl)cc3)cc(C(F)(F)F)c2)OCc2ccccc21 (centres unmarked) [Example 8] | 100 to 300 nM | 0.01 to 100 nM
5 | NCCC1(COCc2cc(N3CCOCC3)cc(C(F)(F)F)c2)OCc2ccccc21 (centres unmarked) [Example 16, 2-(1-((3-morpholino-5-(trifluoromethyl)benzyloxy)methyl)-1,3-dihydroisobenzofuran-1-yl)ethanamine] | > 300 nM | 0.01 to 100 nM
6 | NCCC1(COCc2cc(-c3ccncc3)cc(C(F)(F)F)c2)OCc2ccccc21 (centres unmarked) [Example 3] | 100 to 300 nM | 0.01 to 100 nM
7 | CN(C)CCC1(COCc2cc(-c3ccc(C#N)cc3)cc(C(F)(F)F)c2)OCc2ccccc21 (centres unmarked) [Example 18] | 100 to 300 nM | 0.01 to 100 nM
8 | NCCC1(COCc2cc(-c3cccc(F)c3)cc(C(F)(F)F)c2)OCc2ccccc21 (centres unmarked) [Example 10] | 100 to 300 nM | 0.01 to 100 nM
9 | NCCC1(COCc2cc(-c3ccccc3C(N)=O)cc(C(F)(F)F)c2)OCc2ccccc21 (centres unmarked) [Example 5] | > 300 nM | > 300 nM
10 | COc1ccc(-c2cc(COCC3(CCN)OCc4ccccc43)cc(C(F)(F)F)c2)cc1 (centres unmarked) [Example 7] | > 300 nM | 0.01 to 100 nM
11 | NCCC1(COCc2cc(Br)cc(C(F)(F)F)c2)OCc2ccccc21 (centres unmarked) [Example 1, 2-(1-((3-bromo-5-(trifluoromethyl)benzyloxy)methyl)-1,3-dihydroisobenzofuran-1-yl)ethanamine] | 0.01 to 100 nM | 0.01 to 100 nM
12 | NCCC1(COCc2cc(-c3ccc(F)c(F)c3)cc(C(F)(F)F)c2)OCc2ccccc21 (centres unmarked) [Example 11] | 100 to 300 nM | 0.01 to 100 nM
13 | NCCC1(COCc2cc(-c3ccc(F)cc3F)cc(C(F)(F)F)c2)OCc2ccccc21 (centres unmarked) [Example 15] | 100 to 300 nM | 0.01 to 100 nM
14 | CN(C)CCC1(COCc2cc(-c3ccncc3)cc(C(F)(F)F)c2)OCc2ccccc21 (centres unmarked) [Example 19] | 0.01 to 100 nM | 0.01 to 100 nM
15 | N#Cc1cccc(-c2cc(COCC3(CCN)OCc4ccccc43)cc(C(F)(F)F)c2)c1 (centres unmarked) [Example 4] | 100 to 300 nM | 100 to 300 nM
16 | NCCC1(COCc2cc(-c3cccc(Cl)c3)cc(C(F)(F)F)c2)OCc2ccccc21 (centres unmarked) [Example 13] | > 300 nM | 100 to 300 nM
17 | COc1ccc(-c2cc(COCC3(CCN)OCc4ccccc43)cc(C(F)(F)F)c2)cc1F (centres unmarked) [Example 12] | > 300 nM | 0.01 to 100 nM
18 | NCCC1(COCc2cc(-c3ccc(F)cc3)cc(C(F)(F)F)c2)OCc2ccccc21 (centres unmarked) [Example 9] | 100 to 300 nM | 0.01 to 100 nM
19 | CN(C)CCC1(COCc2cc(Br)cc(C(F)(F)F)c2)OCc2ccccc21 (centres unmarked) [Example 17, 2-(1-((3-bromo-5-(trifluoromethyl)benzyloxy)methyl)-1,3-dihydroisobenzofuran-1-yl)-N,N-dimethylethanamine] | 0.01 to 100 nM | 0.01 to 100 nM

Second part, the compound after the results:

Row | IC50 (hSERT) | IC50 (NK-1) | SMILES
20 | > 300 nM | 0.01 to 100 nM | CN(C)CCCC1(COCc2cc(C(F)(F)F)cc(C(F)(F)F)c2)OCc2ccccc21 (centres unmarked) [Example 38, 3-(1-((3,5-is(trifluoromethyl)benzyloxy)methyl)-1,3-dihydroisobenzofuran-1-yl)-N,N-dimethylpropan-1-amine]
21 | 100 to 300 nM | 0.01 to 100 nM | NCCC1(COCc2cc(C(F)(F)F)cc(C(F)(F)F)c2)OCc2ccccc21 (centres unmarked) [Example 35, 2-(1-((3,5-Bis(trifluoromethyl)benzyloxy)methyl)-1,3-dihydroisobenzofuran-1-yl)ethanamine]
22 | > 300 nM | 0.01 to 100 nM | CN(C)CCC1(COCc2cc(Br)cc(C(F)(F)F)c2)OCc2cc(C#N)ccc21 (centres unmarked) [Example 22]
23 | 0.01 to 100 nM | 0.01 to 100 nM | N#Cc1ccc2c(c1)COC2(CCN)COCc1cc(Br)cc(C(F)(F)F)c1 (centres unmarked) [Example 24]
24 | > 300 nM | 100 to 300 nM | CN(C)CCC1(COCc2cc(-c3ccncc3)cc(C(F)(F)F)c2)OCc2cc(C#N)ccc21 (centres unmarked) [Example 26]
25 | 0.01 to 100 nM | 0.01 to 100 nM | NCCC1(COCc2cc(Cl)cc(Br)c2)OCc2ccccc21 (centres unmarked) [Example 32]
26 | 100 to 300 nM | 0.01 to 100 nM | CC(OCC1(CCN(C)C)OCc2ccccc21)c1cc(Br)cc(C(F)(F)F)c1 (centres unmarked) [Example 27]
27 | > 300 nM | 0.01 to 100 nM | CN(C)CCC1(COCc2cc(-c3ccc(C#N)cc3)cc(C(F)(F)F)c2)OCc2cc(C#N)ccc21 (centres unmarked) [Example 25]
28 | 0.01 to 100 nM | 100 to 300 nM | CN(C)CCC1(COCc2cc(Cl)cc(Br)c2)OCc2ccccc21 (centres unmarked) [Example 31]
29 | 0.01 to 100 nM | 0.01 to 100 nM | CN(C)CCC1(COCc2cc(N3CCOCC3)cc(C(F)(F)F)c2)OCc2ccccc21 (centres unmarked) [Example 20, N,N-dimethyl-2-(1-((3-morpholino-5-(trifluoromethyl)benzyloxy)methyl)-1,3-dihydroisobenzofuran-1-yl)ethanamine]
30 | > 300 nM | 0.01 to 100 nM | CN(C)CCC1(COCc2cc(C(F)(F)F)cc(C(F)(F)F)c2)OCc2cc(C#N)ccc21 (centres unmarked) [Example 21]
31 | 0.01 to 100 nM | 0.01 to 100 nM | NCCC1(COCc2cc(C(F)(F)F)cc(C(F)(F)F)c2)OCCc2ccccc21 (centres unmarked) [Example 39, 2-(1-((3,5-Bis(trifluoromethyl)benzyloxy)methyl)isochroman-1-yl)ethanamine]
32 | 0.01 to 100 nM | 0.01 to 100 nM | CN(C)CCC1(COCc2cc(C(F)(F)F)cc(C(F)(F)F)c2)OCCc2ccccc21 (centres unmarked) [Example 40, 2-(1-((3,5-Bis(trifluoromethyl)benzyloxy)methyl)isochroman-1-yl)-N,N-dimethylethanamine]
33 | > 300 nM | 0.01 to 100 nM | CC(OCC1(CCN)OCc2ccccc21)c1cc(C(F)(F)F)cc(C(F)(F)F)c1 (centres unmarked) [Example 30]
34 | > 300 nM | 0.01 to 100 nM | CC(OCC1(CCN)OCc2ccccc21)c1cc(Br)cc(C(F)(F)F)c1 (centres unmarked) [Example 28]
35 | 0.01 to 100 nM | 0.01 to 100 nM | CN(C)CCC1(COCc2cc(C(F)(F)F)cc(C(F)(F)F)c2)OCc2ccccc21 (centres unmarked) [Example 36, 2-(1-((3,5-Bis(trifluoromethyl)benzyloxy)methyl)-1,3-dihydroisobenzofuran-1-yl)-N,N-dimethylethanamine]
36 | 0.01 to 100 nM | 0.01 to 100 nM | N#Cc1ccc(-c2cc(Cl)cc(COCC3(CCN)OCc4ccccc43)c2)cc1 (centres unmarked) [Example 34]
37 | 100 to 300 nM | 0.01 to 100 nM | N#Cc1ccc2c(c1)COC2(CCN)COCc1cc(C(F)(F)F)cc(C(F)(F)F)c1 (centres unmarked) [Example 23]
